Experimental data reported in publication PMC4917206, “Chemical Modification of Influenza CD8+ T-Cell Epitopes Enhances Their Immunogenicity Regardless of Immunodominance” (PLoS ONE, 2016).
Entries after “also recorded” stand apart in the source; their conditions may differ.

Assays:
[1] = system: CD8+ T cells of HLA-A2+ human donors; type: cell-based; design: key to response compared with WT peptide control, DC model: *: Lower response than WT peptide
[2] = system: splenocytes of WT-vaccinated HLA-A2 tg mice; type: cell-based, mouse
[3] = system: […]-specific T cell clone; type: cell-based
HLA-A*0201 = target: T1, HLA-A*0201 (Homo sapiens, UniProt P04439, D140Y/D185E/D98H/E176V/E277Q/G131W/G231S/I119V/I121R/I166T/I218V/L300P/L318F/N151K/N90K/P208A/P217A/Q86G/Q94H/R138H/R169H/T345S); type: binding
T1 construct: Soluble MHC was dissolved in PBS containing 0.5 mg/ml bovine γ-globulin; made in house

HLA-A2 transgenic mice = details: mouse, in vivo

| Substance | DC model: IFN-γ-positive CD8+ T cells, Average [1] | rank by T cell activation, DC model [1] | response compared with WT peptide control, DC model [1] | Mouse splenocytes (ex vivo assay), Average [2] | T cell clone: percentage of IFN-γ producing T cells, Average [3] | FP binding score, percentage inhibition of tracer peptide binding, 4h (HLA-A*0201) | FP binding score, percentage inhibition of tracer peptide binding, 24h (HLA-A*0201) | binding score (HLA-A*0201) | T cell (IFN-γ) response of vaccinated HLA-A2 tg mice, restimulation not specified or both (HLA-A2 transgenic mice) | IFN-γ ELISpot response after restimulation with WT peptide (HLA-A2 transgenic mice; sc) | rank by T cell activation, mouse splenocytes [2] | rank by T cell activation, T cell clone [3] |
| --- | --- | --- | --- | --- | --- | --- | --- | --- | --- | --- | --- | --- |
| [4-PYRA]ILGFVFTL [G15] | 0.17 | Upper 3 | G15 ^* | 53 | 33.4% |  |  |  |  |  |  |  |
| [4-pyra]ILGFVFTL [G10] | 0.14 |  |  | 47 | 45.4% |  |  |  |  |  |  |  |
| [am-phg]MYSDFHFI [F111] | 0.08 |  |  | 86 |  | 75% | 72% | 72% | improved T cell responses; also recorded: improved immunogenicity; also recorded: higher homologous and heterologous responses | higher responses compared to WT-peptide vaccination; also recorded: higher IFN-γ responses than WT peptide-vaccinated mice |  |  |
| yILGFVFTL [G9] | 0.11 |  |  | 20 | 1.1% |  |  |  |  |  | Lower 3 | Lower 3 |
